Residues, ends and D or L forms follow the SMILES beside them.
Legend:
[1] = target: T1, recombinant human dipeptidyl peptidase IV (rhDpp4) (Homo sapiens, UniProt P27487); assay: Inhibiting activity against rhDpp4 (G-P-pNA cleavage, absorbance at 405 nm); type: biochemical
T1 construct: purchased R&D Systems 1180-SE
Protocol: The inhibiting activity of each test compound was determined against the cleaving activity of GLY-PRO-p-nitroanihde (G-P-pNA, by Sigma, #G-0513), which is a synthetic substrate of recombinant human dipeptidyl peptidase IV (rhDpp4, by R&D Systems, #1180-SE). G-P-pNA was cleaved between PRO and pNA by rhDpp4. Since pNA is absorbed at 405 nm, the value thereof was measured to determine the cleavage amount.
The reaction solution (25 mM Tris (pH8.0), 100 uM G-P-pNA, 0.25 ng/ul rhDPP4) was prepared and added to the test compound so that the final concentration of the test compound became 2 mM (1% DMSO concentration). The reaction solution was kept in 37° C. for 30 minutes. After that, the absorbance at 405 nm was measured at once by a spectrophotometer. The reaction was conducted in 200 ul scale with a 96-well microplate.
At the same time, the absorbance at 405 nm of each 100, 33, 11, 3.7, 1.2, 0.41, and 0.14 uM pNA solution was measured to obtain the relational formula of pNA concentration and absorbance, and the pNA amount (the substrate cleavage amount) in each reaction solution was calculated.
As for the inhibition rate, 3 to 4 wells without the test compound were prepared in the same plate. Then, the inhibition rate was calculated and shown in percentage by using the following formula from the proportion of the substrate cleavage amount (B) of the well to which each test compound was added to the average amount (A) of the substrate cleavage amount of the well without the test compound.
Inhibition rate (%)=100×(1−(B)/(A))

[2] = target: T2, p103 (rat dipeptidyl peptidase IV, DPP4) (Rattus norvegicus, UniProt P14740); assay: Bond of Leu8-MAP to leucine binding protein p103 on the hepatocyte membrane, competition by free amino acids; settings: excess free amino acid
T2 construct: from tissue; host or cells: rat hepatocyte membrane
From the text: In order to solve the above problems, the inventors attempted to identify leucine binding protein that exists on the membrane of rat hepatic cells by using a membrane-impermeable leucine derivative (Leu8-MAP). As a result of the thorough search, they found a molecular weight of 103-kilodalton leucine-specific binding protein (p103) on the hepatocyte membrane. Though the bond of Leu8-MAP to p103 was inhibited by excess free leucine, it was not inhibited by isoleucine or valine. Therefore, p103 was protein that selectively bonds to leucine. Further, as a result of various examinations on the condition for purifying p103 from the hepatocyte membrane, they succeeded in isolating the above protein by purification and detected it as a single band protein by SDS-PAGE electrophoresis. This band was cleaved from the gel, and peptide fragmentation was conducted thereto by the in-gel reduction/alkylation and the enzyme digestion. Then, the mass spectrometry was conducted by providing the fragment with the equipment wherein a nanoHPLC system (Ultimate: Nippon Dionex K.K.) was connected to an ion trap mass spectrometer (LCQ: Thermo Electron Co., Ltd.). The obtained data was identified with a database search system (Mascot: Matrix Science, Ltd.). MSDB (Jan. 6, 2004 ver. by Matrix Science, Ltd.) was used as the sequence database for search. As a result, rat dipeptidyl peptidase IV (DPP4: EC 3.4.14.5) could be identified at a high score.

rat hepatic cells = assay: Measurement of autophagy (proteolysis, valine release) by using rat hepatic cells; type: cell-based
Protocol: Male Wistar rats of 140 to 180 g which were freely fed were used to prepare rat hepatic cells by the collagenase perfusion method (Seglen, P.O. Preparation of isolated liver cells. (1976) In Methods in Cell Biology eds. D. M. Prescott, 13, 29-83. Academic: New York/London). By this method, 2 to 2.5×10^8 cells of the hepatic cells per one individual's […] could be prepared.
The protein decomposition (autophagy) of the prepared hepatic cells was determined by the method of Venerando, et al. Namely, the hepatic cells were put in a 10 mL flask with 3.5 mL of KRB buffer (24 mM bicarbonate, 6 mM glucose) to prepare a cell suspension (1 to 1.2×10^6 cells/mL). The solution was kept and left in 37° C. for 45 minutes in a carbon dioxide incubator. Then, various chemical treatments were conducted under the existence of 20 uM cycloheximide in order to stop the protein synthesis, and the solution was kept at 37° C. for […]. At each 31 minutes and 42 minutes, 0.35 mL of the hepatic cell suspension was taken out, and a perchloric acid cooled with ice (final concentration 6%) was added to the latter and preserved at −20° C. Valine in the supernatant of the acid-soluble fraction was measured, and valine release for 11 minutes was determined. […]

T1 sequence (P27487 whole entry): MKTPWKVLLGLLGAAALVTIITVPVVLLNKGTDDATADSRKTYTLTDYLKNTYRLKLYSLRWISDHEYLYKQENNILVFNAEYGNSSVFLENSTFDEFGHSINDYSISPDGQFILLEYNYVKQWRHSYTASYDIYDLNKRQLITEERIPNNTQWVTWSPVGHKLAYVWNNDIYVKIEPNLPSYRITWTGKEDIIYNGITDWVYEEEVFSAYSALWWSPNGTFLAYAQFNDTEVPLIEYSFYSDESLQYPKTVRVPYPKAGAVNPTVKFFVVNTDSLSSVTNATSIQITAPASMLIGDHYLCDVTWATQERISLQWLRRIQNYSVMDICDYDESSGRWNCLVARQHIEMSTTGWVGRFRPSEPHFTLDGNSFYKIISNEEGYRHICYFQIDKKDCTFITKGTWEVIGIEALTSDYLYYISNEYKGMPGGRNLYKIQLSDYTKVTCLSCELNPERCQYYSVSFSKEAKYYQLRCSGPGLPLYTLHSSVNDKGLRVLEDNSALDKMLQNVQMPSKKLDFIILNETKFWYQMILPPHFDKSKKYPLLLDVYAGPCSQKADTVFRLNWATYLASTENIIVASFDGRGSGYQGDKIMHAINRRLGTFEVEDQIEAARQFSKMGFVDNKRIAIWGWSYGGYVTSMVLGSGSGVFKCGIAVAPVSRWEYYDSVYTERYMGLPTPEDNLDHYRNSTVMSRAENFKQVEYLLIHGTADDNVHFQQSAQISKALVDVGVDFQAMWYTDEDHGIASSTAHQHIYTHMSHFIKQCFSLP
T2 sequence (P14740 whole entry): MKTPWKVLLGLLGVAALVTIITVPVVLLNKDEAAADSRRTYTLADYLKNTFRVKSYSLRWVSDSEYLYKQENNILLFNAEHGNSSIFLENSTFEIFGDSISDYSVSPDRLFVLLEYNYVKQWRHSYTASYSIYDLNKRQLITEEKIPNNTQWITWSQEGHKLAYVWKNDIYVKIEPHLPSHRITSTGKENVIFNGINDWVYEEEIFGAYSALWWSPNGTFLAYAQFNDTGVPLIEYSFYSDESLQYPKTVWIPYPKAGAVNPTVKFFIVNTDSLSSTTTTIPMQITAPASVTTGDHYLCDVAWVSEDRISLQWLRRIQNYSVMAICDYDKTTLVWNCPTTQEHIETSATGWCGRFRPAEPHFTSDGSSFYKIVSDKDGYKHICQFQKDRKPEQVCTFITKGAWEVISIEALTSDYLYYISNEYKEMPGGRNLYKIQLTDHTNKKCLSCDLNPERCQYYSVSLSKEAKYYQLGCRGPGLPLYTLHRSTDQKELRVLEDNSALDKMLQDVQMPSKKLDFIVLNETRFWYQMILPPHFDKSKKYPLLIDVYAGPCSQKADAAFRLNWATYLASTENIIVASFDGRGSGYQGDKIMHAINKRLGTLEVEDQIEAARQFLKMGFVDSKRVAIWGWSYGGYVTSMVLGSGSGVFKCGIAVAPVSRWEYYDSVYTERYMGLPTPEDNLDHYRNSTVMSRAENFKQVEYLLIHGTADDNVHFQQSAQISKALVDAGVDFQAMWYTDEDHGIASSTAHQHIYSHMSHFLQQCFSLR

Q: What does the source list for `CC(C)C[C@H](N)C(=O)O` [Leucine, L-leucine]?
A: concentration-dependent Dpp4 inhibiting activity (FIG. 1), in words ([1]; FIG. 1): inhibits Dpp4; Dpp4 inhibiting activity among 20 kinds of amino acids (FIG. 2, substrate cleavage rate), in words [1]: has the Dpp4 inhibiting activity; inhibition of the bond of Leu8-MAP to p103, in words [2]: inhibited; effect on autophagy induced by amino acid starvation, in words (rat hepatic cells): strongly inhibits autophagy; Inhibition of proteolysis (%) (rat hepatic cells; starvation induced proteolysis, 20 uM cycloheximide, valine release for 11 minutes): 27.9%

Q: How did the “Dpp4 inhibiting activity among 20 kinds of amino acids (FIG. 2, substrate cleavage rate), in words” value [1] turn out when `CSCC[C@H](N)C(=O)O` [Met, L-methionine] was run?
A: The value was “has the Dpp4 inhibiting activity”.

Q: For `CC(C)C[C@H](NC(=O)[C@@H](N)CCCCN)C(=O)O` [R1=L-Lys, R2=OH, Lys-Leu] (H-Lys-Leu-OH), which “Inhibition rate (%)” value ([1]; test compound 2 mM, 100 uM G-P-pNA, 0.25 ng/ul rhDPP4, 37° C. for 30 minutes) is on record?
A: Its value is 38.4%.

Q: For `CC[C@H](C)[C@H](N)C(=O)O` [isoleucine], which “inhibition of the bond of Leu8-MAP to p103, in words” value [2] is on record?
A: Its value is “not inhibited”.

Q: How did the “inhibition of the bond of Leu8-MAP to p103, in words” value [2] turn out when `CC(C)[C@H](N)C(=O)O` [valine] was run?
A: The value was “not inhibited”.

— patent publication US20080175837A1, “DPP4 INHIBITOR AND PHARMACEUTICAL USE THEREOF” (AJINOMOTO CO., INC, priority 2005, published 2008)
